Source: patent US20230079819A1, “COMPOUNDS AND USES THEREOF” (Foghorn Therapeutics Inc., priority 2019, published 2023)

What was measured:
BRG-1 = target: T1, BRG-1 (Homo sapiens, UniProt P51532); test: ATPase catalytic activity of BRG-1, ADP-Glo in vitro biochemical assay; conditions: ATPase catalytic activity, 30 nM BRG-1, 400 μM ATP, read-out: BRG1 IP50
T1 construct: made in house; host or cells: High Five insect cells

BRM = target: T2, BRM (Homo sapiens, UniProt P51531); test: ATPase catalytic activity of BRM, ADP-Glo in vitro biochemical assay; conditions: ATPase catalytic activity, 30 nM BRM, 400 μM ATP, read-out: BRM IP50
T2 construct: made in house; host or cells: High Five insect cells
T2 sequence (P51531 whole entry): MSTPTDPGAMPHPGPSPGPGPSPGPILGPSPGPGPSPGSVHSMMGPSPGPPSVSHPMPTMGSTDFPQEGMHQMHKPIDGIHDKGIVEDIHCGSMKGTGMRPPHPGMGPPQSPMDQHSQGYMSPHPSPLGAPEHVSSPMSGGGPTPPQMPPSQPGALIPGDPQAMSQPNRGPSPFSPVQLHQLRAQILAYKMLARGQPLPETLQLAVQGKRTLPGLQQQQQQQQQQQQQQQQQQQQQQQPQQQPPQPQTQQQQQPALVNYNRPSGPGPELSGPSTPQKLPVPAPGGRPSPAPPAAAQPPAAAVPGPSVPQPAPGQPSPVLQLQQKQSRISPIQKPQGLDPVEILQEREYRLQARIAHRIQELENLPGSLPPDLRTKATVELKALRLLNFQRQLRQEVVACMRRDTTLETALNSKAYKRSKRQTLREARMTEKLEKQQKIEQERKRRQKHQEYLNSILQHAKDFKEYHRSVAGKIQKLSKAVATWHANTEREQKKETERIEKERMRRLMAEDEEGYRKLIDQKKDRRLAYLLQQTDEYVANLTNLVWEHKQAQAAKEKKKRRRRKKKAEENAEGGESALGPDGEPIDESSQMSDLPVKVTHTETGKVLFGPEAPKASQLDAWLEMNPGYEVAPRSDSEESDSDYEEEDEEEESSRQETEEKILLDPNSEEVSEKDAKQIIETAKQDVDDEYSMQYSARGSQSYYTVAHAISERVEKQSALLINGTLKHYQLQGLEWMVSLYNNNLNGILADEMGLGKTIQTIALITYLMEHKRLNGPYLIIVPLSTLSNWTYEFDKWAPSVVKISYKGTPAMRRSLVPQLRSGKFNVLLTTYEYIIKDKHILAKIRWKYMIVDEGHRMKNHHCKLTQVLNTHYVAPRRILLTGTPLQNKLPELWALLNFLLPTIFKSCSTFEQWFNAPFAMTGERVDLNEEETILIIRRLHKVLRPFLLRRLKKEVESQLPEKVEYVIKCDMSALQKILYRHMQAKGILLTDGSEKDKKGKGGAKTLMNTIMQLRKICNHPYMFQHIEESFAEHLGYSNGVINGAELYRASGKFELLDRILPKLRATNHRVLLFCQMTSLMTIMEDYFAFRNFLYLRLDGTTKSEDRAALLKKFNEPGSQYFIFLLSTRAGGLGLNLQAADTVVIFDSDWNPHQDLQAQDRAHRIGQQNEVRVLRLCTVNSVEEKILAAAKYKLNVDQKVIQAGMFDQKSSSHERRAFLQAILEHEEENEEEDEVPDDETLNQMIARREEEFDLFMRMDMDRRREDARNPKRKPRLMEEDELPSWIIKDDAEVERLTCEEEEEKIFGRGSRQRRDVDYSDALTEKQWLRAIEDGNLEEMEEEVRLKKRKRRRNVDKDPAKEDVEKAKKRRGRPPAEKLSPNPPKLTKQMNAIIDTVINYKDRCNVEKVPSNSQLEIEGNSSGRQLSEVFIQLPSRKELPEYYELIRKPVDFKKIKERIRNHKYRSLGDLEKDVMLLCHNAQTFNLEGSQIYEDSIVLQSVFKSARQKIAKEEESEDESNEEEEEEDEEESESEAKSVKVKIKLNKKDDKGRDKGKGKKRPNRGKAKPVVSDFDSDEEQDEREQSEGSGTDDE

T1 sequence (P51532 whole entry): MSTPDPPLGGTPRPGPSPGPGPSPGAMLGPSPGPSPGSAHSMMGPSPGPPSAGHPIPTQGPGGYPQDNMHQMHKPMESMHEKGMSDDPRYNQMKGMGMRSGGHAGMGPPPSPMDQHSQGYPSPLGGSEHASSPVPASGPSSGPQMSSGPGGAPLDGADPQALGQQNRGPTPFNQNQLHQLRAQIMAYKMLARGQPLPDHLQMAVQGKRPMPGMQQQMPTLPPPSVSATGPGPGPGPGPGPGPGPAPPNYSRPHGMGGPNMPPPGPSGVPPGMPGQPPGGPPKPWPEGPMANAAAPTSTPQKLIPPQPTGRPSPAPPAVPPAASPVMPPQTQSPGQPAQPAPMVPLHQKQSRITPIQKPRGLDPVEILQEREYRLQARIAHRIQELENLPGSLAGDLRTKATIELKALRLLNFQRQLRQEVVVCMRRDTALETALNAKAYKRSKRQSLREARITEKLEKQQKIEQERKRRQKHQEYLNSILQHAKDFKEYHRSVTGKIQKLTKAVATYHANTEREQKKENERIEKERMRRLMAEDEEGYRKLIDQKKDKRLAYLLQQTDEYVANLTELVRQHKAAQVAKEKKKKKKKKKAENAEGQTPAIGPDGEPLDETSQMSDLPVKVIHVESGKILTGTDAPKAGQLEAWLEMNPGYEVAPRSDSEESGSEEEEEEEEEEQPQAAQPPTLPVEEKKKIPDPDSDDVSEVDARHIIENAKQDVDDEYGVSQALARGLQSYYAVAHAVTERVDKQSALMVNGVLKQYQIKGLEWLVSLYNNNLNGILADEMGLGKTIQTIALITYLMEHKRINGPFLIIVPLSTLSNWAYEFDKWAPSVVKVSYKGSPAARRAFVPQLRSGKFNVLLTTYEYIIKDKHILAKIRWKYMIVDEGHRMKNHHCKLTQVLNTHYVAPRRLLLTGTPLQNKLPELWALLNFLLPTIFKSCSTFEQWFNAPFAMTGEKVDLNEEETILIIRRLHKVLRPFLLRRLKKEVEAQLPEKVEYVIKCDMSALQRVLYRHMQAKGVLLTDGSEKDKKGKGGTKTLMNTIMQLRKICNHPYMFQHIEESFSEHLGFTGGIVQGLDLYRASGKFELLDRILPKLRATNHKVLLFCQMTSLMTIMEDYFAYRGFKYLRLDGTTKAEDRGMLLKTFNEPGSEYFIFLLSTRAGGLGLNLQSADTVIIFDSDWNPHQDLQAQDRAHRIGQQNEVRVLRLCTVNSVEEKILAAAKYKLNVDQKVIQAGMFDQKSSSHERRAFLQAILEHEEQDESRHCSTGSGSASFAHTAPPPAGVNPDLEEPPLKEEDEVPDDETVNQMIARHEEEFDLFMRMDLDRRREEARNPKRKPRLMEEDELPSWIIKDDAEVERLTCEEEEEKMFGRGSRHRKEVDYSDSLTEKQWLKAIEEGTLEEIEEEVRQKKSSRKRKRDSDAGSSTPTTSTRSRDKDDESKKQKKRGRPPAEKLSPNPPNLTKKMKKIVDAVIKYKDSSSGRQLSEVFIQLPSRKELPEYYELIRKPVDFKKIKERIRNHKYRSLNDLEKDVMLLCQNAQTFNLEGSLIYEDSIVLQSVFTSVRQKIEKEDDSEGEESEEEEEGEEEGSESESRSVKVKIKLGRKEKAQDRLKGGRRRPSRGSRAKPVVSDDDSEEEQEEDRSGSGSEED

Compound | IC50 (BRG-1) | IC50 (BRM)
CC(C)(C)n1ccc(C(=O)NCC(=O)Nc2nc(-c3cccc(N4CCC(F)(F)C4)n3)cs2)c1 [Compound 679] | > 10 nM | > 10 nM
CN(C)C1CCCN(c2cccc(-c3csc(NC(=O)CNC(=O)c4ccn(C(C)(C)C)c4)n3)n2)C1 (stereo not shown) [Compound 680] | > 100 nM | > 10 nM
CC(C)(C)n1ccc(C(=O)NCC(=O)Nc2nc(-c3cccc(N4CCc5cnccc5C4)n3)cs2)c1 [Compound 681] | > 10 nM | < 10 nM
CC(C)(C)n1ccc(C(=O)NCC(=O)Nc2nc(-c3cccc(N4CCC(n5cncn5)CC4)n3)cs2)c1 [Compound 682] | > 100 nM | > 100 nM
CS(=O)(=O)n1ccc(C(=O)NCC(=O)Nc2nc(-c3cccc(N4CC[C@@H](C(F)F)C4)n3)cs2)c1 [Compound 683] | > 10 nM | > 10 nM
COCC1CN(c2cccc(-c3csc(NC(=O)CNC(=O)c4ccn(C(C)(C)C)c4)n3)n2)CCO1 (stereo not shown) [Compound 684] | > 10 nM | > 10 nM
C[C@@H]1CN(c2cncc(-c3csc(NC(=O)CNC(=O)c4ccn(C(C)(C)C)c4)n3)c2)C[C@H](C)O1 [Compound 685] | > 100 nM | > 10 nM
C[C@@H]1CN(c2cncc(-c3csc(NC(=O)CNC(=O)c4ccn(S(C)(=O)=O)c4)n3)c2)C[C@H](C)O1 [Compound 686] | > 10 nM | > 10 nM
CC(C)(C)n1ccc(C(=O)NCC(=O)Nc2nc(-c3cccc(N4CC(F)C4)n3)cs2)c1 [Compound 687] | > 100 nM | > 10 nM
COC[C@H](NC(=O)c1ccn(S(C)(=O)=O)c1)C(=O)Nc1nc(-c2ccc3c(c2)CCO3)cs1 [Compound 688] | > 10 nM | > 10 nM
CC(C)(C)n1ccc(C(=O)NCC(=O)Nc2nc(-c3cccc(N4C[C@@H]5[C@@H](CF)[C@@H]5C4)n3)cs2)c1 [Compound 689] | > 100 nM | > 100 nM
CC(C)(C)n1ccc(C(=O)NCC(=O)Nc2nc(-c3cccc(N4CC[C@H](F)C4)n3)cs2)c1 [Compound 690] | > 100 nM | > 10 nM
COC[C@H](NC(=O)c1ccn(S(C)(=O)=O)c1)C(=O)Nc1nc(-c2cccc(N3CC[C@@H](C(F)F)C3)n2)cs1 [Compound 691] | > 100 nM | > 10 nM
CC(C)(C)n1ccc(C(=O)NCC(=O)Nc2nc(-c3cccc(N4CCn5ncnc5C4)n3)cs2)c1 [Compound 692] | > 10 nM | > 10 nM
C[C@@H]1CN(c2cncc(-c3csc(NC(=O)CNC(=O)c4ccn(S(C)(=O)=O)c4)n3)n2)C[C@H](C)O1 [Compound 693] | > 10 nM | < 10 nM
COC[C@H](NC(=O)c1ccn(S(C)(=O)=O)c1)C(=O)Nc1nc(-c2cc(F)c3c(c2)OCO3)cs1 [Compound 695] | < 10 nM | < 10 nM
Cn1ccc(C2CCN(c3cccc(-c4csc(NC(=O)CNC(=O)c5ccn(C(C)(C)C)c5)n4)n3)CC2)n1 [Compound 696] | > 100 nM | > 100 nM
CC(C)(C)n1ccc(C(=O)NCC(=O)Nc2nc(-c3cccc(N4CCCC(OC(F)F)C4)n3)cs2)c1 (stereo not shown) [Compound 697] | > 10 nM | > 10 nM
CS(=O)(=O)n1ccc(C(=O)NCC(=O)Nc2nc(-c3cccc(N4CC[C@H](C(F)F)C4)n3)cs2)c1 [Compound 698] | > 10 nM | > 10 nM

Compound | IC50 (BRG-1) | IC50 (BRM)
COC[C@H](NC(=O)c1ccn(S(C)(=O)=O)c1)C(=O)Nc1nc(-c2cccc(N3CC[C@H](C(F)F)C3)n2)cs1 [Compound 699] | > 10 nM | > 10 nM
COc1cc(F)cc(-c2csc(NC(=O)CNC(=O)c3ccn(S(C)(=O)=O)c3)n2)c1 [Compound 701] | > 10 nM | < 10 nM
Cc1nc(C2CCCN(c3cccc(-c4csc(NC(=O)CNC(=O)c5ccn(C(C)(C)C)c5)n4)n3)C2)no1 (stereo not shown) [Compound 704] | > 10 nM | > 10 nM
C[C@@H]1CN(c2cncc(-c3csc(NC(=O)CNC(=O)c4ccn(C(C)(C)C)c4)n3)n2)C[C@H](C)O1 [Compound 705] | > 10 nM | > 10 nM
Cn1cc(N2CCN(c3cccc(-c4csc(NC(=O)CNC(=O)c5ccn(C(C)(C)C)c5)n4)n3)CC2)cn1 [Compound 706] | > 100 nM | > 100 nM
COC[C@H](NC(=O)c1ccn(S(C)(=O)=O)c1)C(=O)Nc1nc(-c2cncc(N3C[C@@H](C)O[C@@H](C)C3)n2)cs1 [Compound 707] | > 10 nM | > 10 nM
COC[C@H](NC(=O)c1ccn(S(C)(=O)=O)c1)C(=O)Nc1nc(-c2cc(F)c3c(c2)CCO3)cs1 [Compound 708] | < 10 nM | < 10 nM
CC(C)(C)n1ccc(C(=O)NCC(=O)Nc2nc(-c3cccc(N4CCCC(n5cncn5)C4)n3)cs2)c1 (stereo not shown) [Compound 709] | > 10 nM | > 10 nM
COC[C@H](NC(=O)c1ccn(S(C)(=O)=O)c1)C(=O)Nc1nc(-c2cccc(OC)c2F)cs1 [Compound 710] | > 10 nM | > 10 nM
COc1cccc(-c2csc(NC(=O)CNC(=O)c3ccn(S(C)(=O)=O)c3)n2)c1F [Compound 711] | > 10 nM | > 10 nM
COC[C@H](NC(=O)c1ccn(S(C)(=O)=O)c1)C(=O)Nc1nc(-c2cccc(C#N)c2)cs1 [Compound 712] | > 10 nM | > 10 nM
COC[C@H](NC(=O)c1ccn(S(C)(=O)=O)c1)C(=O)Nc1nc(-c2cc(F)c3c(c2)N(C)CC3)cs1 [Compound 713] | < 10 nM | < 10 nM
COC[C@H](NC(=O)c1ccn(S(C)(=O)=O)c1)C(=O)Nc1nc(-c2cc(F)cc(C#N)c2)cs1 [Compound 714] | > 10 nM | > 10 nM
CS(=O)(=O)n1ccc(C(=O)NCC(=O)Nc2nc(-c3cc(F)cc(C#N)c3)cs2)c1 [Compound 715] | > 10 nM | > 10 nM
COC[C@H](NC(=O)c1ccn(S(C)(=O)=O)c1)C(=O)Nc1nc(-c2ccc(F)c(OC)c2)cs1 [Compound 716] | > 10 nM | > 10 nM
CS(=O)(=O)n1ccc(C(=O)NCC(=O)Nc2nc(-c3cccc([C@H]4[C@@H]5COC[C@@H]54)c3)cs2)c1 [Compound 717] | > 10 nM | > 10 nM
COc1cc(-c2csc(NC(=O)CNC(=O)c3ccn(S(C)(=O)=O)c3)n2)ccc1F [Compound 718] | > 10 nM | > 10 nM
CS(=O)(=O)n1ccc(C(=O)NCC(=O)Nc2nc(-c3cc(F)c4c(c3)C(F)(F)CC4)cs2)c1 [Compound 719] | < 10 nM | < 10 nM
CS(=O)(=O)n1ccc(C(=O)NCC(=O)Nc2nc(-c3ccc4c(c3)C(F)(F)CC4)cs2)c1 [Compound 720] | > 10 nM | > 10 nM

Compound | IC50 (BRG-1) | IC50 (BRM)
COC[C@H](NC(=O)c1ccn(S(C)(=O)=O)c1)C(=O)Nc1nc(-c2cc(Cl)cc(C#N)c2)cs1 [Compound 721] | > 10 nM | > 10 nM
CS(=O)(=O)n1ccc(C(=O)NCC(=O)Nc2nc(-c3cc(Cl)cc(C#N)c3)cs2)c1 [Compound 722] | > 10 nM | > 10 nM
COC[C@H](NC(=O)c1ccn(S(C)(=O)=O)c1)C(=O)Nc1nc(-c2cc(F)cc(OC)c2)cs1 [Compound 726] | < 10 nM | < 10 nM
CC(C)(C)n1ccc(C(=O)NCC(=O)Nc2nc(-c3cccc(N4CC[C@@H]5COC[C@H]5C4)n3)cs2)c1 [Compound 727] | > 10 nM | < 10 nM
COC[C@H](NC(=O)c1ccn(S(C)(=O)=O)c1)C(=O)Nc1nc(-c2ccc3c(c2)OC(F)(F)O3)cs1 [Compound 728] | > 10 nM | > 10 nM
COC[C@H](NC(=O)c1ccn(C2(C#N)CCC2)c1)C(=O)Nc1nc(-c2cccc(N3C[C@@H](C)O[C@@H](C)C3)n2)cs1 [Compound 730] | < 10 nM | < 10 nM
C[C@@H]1CN(c2cccc(-c3csc(NC(=O)CNC(=O)c4ccn(C5(C#N)CCC5)c4)n3)n2)C[C@H](C)O1 [Compound 731] | < 10 nM | < 10 nM
COC[C@H](NC(=O)c1ccn(S(C)(=O)=O)c1)C(=O)Nc1nc(-c2ccc3c(c2)C(F)(F)CC3)cs1 [Compound 732] | > 10 nM | > 10 nM
COC[C@H](NC(=O)c1ccn(S(C)(=O)=O)c1)C(=O)Nc1nc(-c2cc(F)c3c(c2)C(F)(F)CC3)cs1 [Compound 733] | < 10 nM | < 10 nM
COC[C@H](NC(=O)c1ccn(S(C)(=O)=O)c1)C(=O)Nc1nc(-c2cc(C)cc(N3C[C@@H](C)O[C@@H](C)C3)n2)cs1 [Compound 734] | < 10 nM | < 10 nM
COC[C@H](NC(=O)c1ccn(S(C)(=O)=O)c1)C(=O)Nc1nc(-c2ccc3c(c2)CCN3C)cs1 [Compound 735] | > 10 nM | > 10 nM
C[C@@H]1CN(c2cccc(-c3csc(NC(=O)CNC(=O)c4ccn(C5(CF)COC5)c4)n3)n2)C[C@H](C)O1 [Compound 736] | < 10 nM | < 10 nM
C[C@@H]1CN(c2cccc(-c3csc(NC(=O)CNC(=O)c4ccn(C5(C(F)F)CC5)c4)n3)n2)C[C@H](C)O1 [Compound 737] | < 10 nM | < 10 nM
COC[C@H](NC(=O)c1ccn(S(C)(=O)=O)c1)C(=O)Nc1nc(-c2cc(F)cc(-c3cnn(C)n3)c2)cs1 [Compound 738] | < 10 nM | < 10 nM
COC[C@H](NC(=O)c1ccn(C(C)(C)C#N)c1)C(=O)Nc1nc(-c2cc(F)cc(-c3cnn(C)n3)c2)cs1 [Compound 739] | < 10 nM | < 10 nM
COC[C@H](NC(=O)c1ccn(C(C)(C)C#N)c1)C(=O)Nc1nc(-c2cc(C)cc(N3C[C@@H](C)O[C@@H](C)C3)n2)cs1 [Compound 740] | < 10 nM | < 10 nM
CS(=O)(=O)n1ccc(C(=O)NCC(=O)Nc2nc(-c3cccc(C45CCOCC4C5)c3)cs2)c1 (stereo not shown) [Compound 743] | > 10 nM | > 10 nM
CC(C)(C)n1ccc(C(=O)NCC(=O)Nc2nc(-c3cccc(C45CCOCC4C5)c3)cs2)c1 (stereo not shown) [Compound 744] | > 10 nM | > 10 nM
